Legend:
[1] = tested on: C-26 colon adenocarcinoma cachexia model; experiment: Combined androgen and AR-42 study (Study 3), C-26 model; assay type: in vivo, mouse; conditions: Study 3
Procedure: These studies were performed as previously described (Tseng Y C, et al. J Natl Cancer Inst. 2015 107(12):djv274) with modifications. Tumors were established in the right flank by subcutaneous injection of C-26 cells (0.5×10^6 cells in 0.1 mL). […] TFM-4AS-1 (a potent experimental SARM), dihydrotestosterone (DHT) and vehicles were administered by subcutaneous injection.
Six days after cell injection, animals with palpable tumors were treated once daily for 13 days with vehicles for AR-42 and TFM-4AS-1/DHT (n=9), AR-42 (10 mg/kg; TFM-4AS-1/DHT vehicle; n=10), TFM-4AS-1 (10 mg/kg; AR-42 vehicle; n=9), DHT (3 mg/kg; AR-42 vehicle; n=10), the combination of AR-42 and TFM-4AS-1 (10 mg/kg each; n=9), or the combination of AR-42 (10 mg/kg) and DHT (3 mg/kg)(n=10). Grip strength was measured and tissues collected as in the previous studies.
Forelimb grip strength was measured using Bio-GS3 Grip Strength Test Meter (Forceleader DBA Bioseb, Pinellas Park, Fla.). Each mouse was held by the base of its tail and lowered over the apparatus until its forepaws grasped the metal pull bar. The mouse was then gently pulled horizontally in a straight line away from the grip strength meter until the mouse released the bar. The force applied to the bar at the moment of release was recorded as the peak force. Five measurements were taken from each mouse, the average of which was designated as the mouse's grip strength.

[2] = Jones et al. 2010; cited from earlier work

C[C@]12CCC(=O)C[C@@H]1CC[C@@H]1[C@@H]2CC[C@]2(C)[C@@H](O)CC[C@@H]12 [DHT, dihydrotestosterone]
tumor growth ([1]; DHT alone 3 mg/kg, after 8 days of administration): tumor growth was significantly suppressed

C[C@](O)(COc1ccc(Cl)c(F)c1)C(=O)Nc1ccc(C#N)c(C(F)(F)F)c1 [S-23]
effect on orchiectomy- and glucocorticoid-mediated wasting [2]: reversed orchiectomy- and glucocorticoid-mediated wasting

CN1C(=O)C=C[C@]2(C)[C@H]3CC[C@]4(C)[C@@H](C(=O)Nc5ccccc5C(F)(F)F)CC[C@H]4[C@@H]3CC[C@@H]12 [TFM-4AS-1]
effect on body weight ([1]; TFM-4AS-1 10 mg/kg monotherapy): did not spare body weight
effect on mass of gastrocnemius or quadriceps ([1]; monotherapy (TFM-4AS-1 10 mg/kg; AR-42 10 mg/kg)): did not spare

— US11529323B2 (priority 2017, dated 2022)
